According to paper PMC6718149, “Structure of GTP cyclohydrolase I from Listeria monocytogenes, a potential anti-infective drug target” (Acta Crystallographica. Section F, Structural Biology …, 2019):

T1: human GTP cyclohydrolase I (Homo sapiens, UniProt P30793)
T1 construct: made in house
T1 sequence (P30793 43-250 limits assumed): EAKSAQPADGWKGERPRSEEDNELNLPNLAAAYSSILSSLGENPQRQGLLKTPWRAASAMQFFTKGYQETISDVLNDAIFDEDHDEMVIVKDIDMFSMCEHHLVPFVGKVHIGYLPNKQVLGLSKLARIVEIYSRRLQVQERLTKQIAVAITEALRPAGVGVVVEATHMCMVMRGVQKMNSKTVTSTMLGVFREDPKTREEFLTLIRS

B1: GTP cyclohydrolase I from Listeria monocytogenes (enzyme, L. monocytogenes)
chain: EQIDKQKIADAVKVILEAVGENPDREGLIDTPMRVARMYEEVFAGLKKDPSVHFDTIFEEQHEELVLVKDIRFSSMCEHHLVPFFGVAHVAYLPQNGRVAGLSKLARVVDDVSRRPQLQERITTTVAEIMMEKLKPLGVMVIMEAEHMCMTIRGVNKPGTKTITSAVRGAFKNDDKLRSEVLALIKHN
modifications: Cys78 and Cys150 oxidized to the disulfide level (in the crystal; zinc lost)
notes: GTP cyclohydrolase I (folE), L. monocytogenes ATCC BAA-679; the natural stretch begins at Glu (first cloned triplet GAG) and runs to the stop codon; the printed Cys78 and Cys150 fit numbering with this Glu as residue 2; D5-symmetric homodecamer; also called LmGTPCHI; His6-EK-LmGTP-CHI; source: E. coli XL1-Blue (plasmid pNCO-His6-EK-LmGTP-CHI), purified (nickel-NTA agarose, Superdex 200); not …

Key:
[1] = biological target: T2, GTP cyclohydrolase I from L. monocytogenes (Listeria monocytogenes serovar 1/2a, UniProt Q8Y5X1); assay: Photometric GTP cyclohydrolase I inhibition assay (330 nm), IC50 determination of screening hits; assay type: biochemical; conditions: GTP cyclohydrolase I from L. monocytogenes (red curve); 200 µM GTP, pH 7.5; calculated with DynaFit
T2 construct: made in house; host or cells: Escherichia coli XL1-Blue, plasmid pNCO-His6-EK-LmGTP-CHI
Method: (§1) In order to explore the druggability of the protein, we screened a small library of about 9000 highly diverse compounds (Bracher et al., 1998[▸]). Assays were run in 384-well plates and were monitored photometrically at 330 nm. Hits were rescreened against GTP cyclohydrolase I from L. monocytogenes and human GTP cyclohydrolase I, and IC50 values were determined using the photometric assay. […] Although stronger inhibitors have been reported down to a K i of 5.4 nM (Tanaka et al., 2005[▸]), all of the inhibitors reported so far are substrate or product analogs.
(§2) Assay mixtures contained 50 mM Tris hydrochloride, pH 7.5, 100 mM KCl, 200 µM GTP, and protein. They were monitored photometrically at 330 nm.
(§3) S2. High throughput screen
(§4) A substance library of 9,000 test compounds (courtesy of BASF Crop protection division, Ludwigshafen, Germany) was tested against GTP cyclohydrolase I protein from L. monocytogenes in 384 well clear bottom plates (Corning, polystyrol, flat-bottom, non-treated surface). 32 wells of each plate were used as “signal”, i.e. as positive control with enzyme and substrate, but without test compound. 32 wells of each plate were used as “control”, i.e. as negative control with substrate but without enzyme or test compound. Each of the remaining 320 wells contained app. 50 µM test compound (depending on the molecular weight of a given test substance) in 3 µL DMSO. The compounds were pipetted with a Hamilton Starlet robot (Hamilton Germany GmbH, Planegg, Germany) with a 96-tip pipetting block. Enzyme (final concentration 8.7 µM) and substrate (final concentration 200 µM) were supplied in separate solutions that both contained 50 mM Tris hydrochloride, pH 7.5 and 100 mM KCl. 30 µL per well of both solutions were filled in to the assay plates with an 8-fold dispenser (Bio Tek Germany, Bad Friedrichshall, Germany) and the plates were then centrifuged for 1 min at 1,000 rpm and room temperature. The reaction was monitored with a SpectraMax M5 plate reader photometer (Molecular Devices GmbH, Biberach a. d. Riss, Germany) at 330 nm and room temperature for 30 min. […]

[2] = biological target: T1, human GTP cyclohydrolase I; assay: Photometric counterscreen against human GTP cyclohydrolase I (330 nm); assay type: biochemical; conditions: human GTP cyclohydrolase I (blue curve); 200 µM GTP, pH 7.5; calculated with DynaFit
Method: as §1, §2, §3, §4

[3] = biological target: the molecule itself; assay: crystal structure; sitting-drop vapor diffusion, 1.33 M sodium citrate, 0.1 M HEPES pH 7.3; 2.4 Å; one decamer in the asymmetric unit

Row | Molecule | IC50 [1] | IC50 [2] | stoichiometry N [3]
1 | C=CCNc1nc(N)c(C(=O)c2ccc3c(c2)OCO3)s1 [(a)] | 13 ± 1 µM | > 500 µM | 
2 | O=C1CS/C(=N/N=C/c2ccc(-c3ccc(Cl)cc3)o2)N1 [(b)] | 27 ± 6 µM | 238 ± 40 µM | 
3 | Cc1ccc(OC(=S)Nc2ccc(NC(=S)Oc3ccc(C)cc3)cc2)cc1 [(c)] | 36 ± 3 µM | 327 ± 66 µM | 
4 | B1 |  |  | 10
